Experimental data: patent US20110028513A1, “METHOD FOR TREATING NEUROLOGICAL DISORDERS WITH IMIDAZOLIUM AND IMIDAZOLINIUM COMPOUNDS” (priority 2008, published 2011)
Entries after “also recorded” stand apart in the source; their conditions may differ.

How the values were obtained:
transgenic GFAP-GFP mice [1] = experiment: In vivo retinal imaging (scanning laser ophthalmoscope) of GFP fluorescence in the optic disc of 2′-CH3-MPTP-treated mice
Experimental: (§1) The generation and genotyping of the transgenic GFAP (glial fibrillary acidic protein)-GFP (green fluorescent protein) mice were performed as previously described (Zhuo et al., 1997, See PCT Application No. PCT/SG2008/000159). Adult mice (8-10 weeks old) in the Friend virus B-Type (FVB/N) background were used in this study. Animal husbandry was provided by the Biological Resource Center (BRC) of Biopolis, Singapore. The experimental protocol for this study was approved by the Institutional Animal Care and Use Committee at BRC.
The synthesis of DBZIM has been described. (See PCT Application No. SG2009/000037, Zhang et al., 2007). The structure of DBZIM is illustrated in FIG. 1. […] The dosing regime is illustrated in FIG. 2. Mice in the DBZIM/neurotoxicant-treated group received an intraperitoneal (ip) injection of DBZIM (25 mg/kg in saline) 24 h before and after administering 4 ip injections of 2′-CH3-MPTP (15 mg/kg in saline; once every 2 h). Mice in the neurotoxicant-treated group were injected with 2′-CH3-MPTP only (4×15 mg/kg in saline; ip; once every 2 h). For each mouse in the DBZIM/neurotoxicant-treated group (n=5) and neurotoxicant-treated group (n=5), saline was used as a vehicle for the control group (n=6). Retinal imaging was performed before and after treatment.
Mice were anesthetized by ip injections with 0.15 ml/10 g body weight of Avertin (1.5% 2,2,2-tribromoethanol; T48402) purchased from Sigma-Aldrich (St. Louis, Mo., USA). Their pupils were dilated with a drop of 0.5% Cyclogyl® sterile ophthalmic solution (cyclopentolate hydrochloride, Alcon®, Puurs, Belgium). Custom-made polymethylmethacrylate (PMMA) hard contact lenses (Cantor & Nissel, Northamptonshire, UK) were used to avoid dehydration of the cornea. Careful examination by an eye specialist before scanning laser ophthalmoscope (SLO) imaging ruled out the presence of any corneal or lens opacity.
The second version of Heidelberg Retina Angiograph (HRA II) SLO (Heidelberg Engineering, Dossenheim, Germany) was modified for use on mice. SLO is an imaging technique based on the scanning of the fundus with a laser beam from a point source; the reflected light is detected by a photomultiplier. The incident and reflected light beams follow a co-axial path. Therefore, more light can pass through small eyes with SLO than with conventional fundus cameras. […]
Unlike magnetic resonance images (MRI) and in vitro fluorescent-labeled cell images, the in vivo fluorescence images of transgenic GFAP-GFP expression in the mouse retina have very low signal-to-noise ratio (SNR), which makes the quantitative analysis of the transgene expression difficult. […]

transgenic GFAP-GFP mice [2] = experiment: Retinal whole-mount and cross-section immunohistochemistry (GFP/GFAP) for 2′-CH3-MPTP-induced gliosis; assay type: in vivo; conditions: DBZIM 25 mg/kg ip plus 2′-CH3-MPTP
Experimental: as §1
(§2) The synthesis of DBZIM has been described. (See PCT Application No. SG2009/000037, Zhang et al., 2007). The structure of DBZIM is illustrated in FIG. 1. […] The dosing regime is illustrated in FIG. 2. Mice in the DBZIM/neurotoxicant-treated group received an intraperitoneal (ip) injection of DBZIM (25 mg/kg in saline) 24 h before and after administering 4 ip injections of 2′-CH3-MPTP (15 mg/kg in saline; once every 2 h). […]
(§3) After perfusion with 1× PBS, followed by 4% fresh paraformaldehyde (in 1× PBS, pH 7.4), the mouse brains were harvested and the eyes enucleated. […] The retinas, free of the choroid and sclera tissues, were whole-mounted on a glass slide with Vectorshield mounting medium for fluorescence (Vector Laboratories, Inc., Burlingame, Calif., USA; H1000). […]

transgenic GFAP-GFP mice [3] = experiment: Brain cryosection immunohistochemistry (GFP/TH) of striatum and SNpc after 2′-CH3-MPTP; assay type: in vivo; conditions: DBZIM 25 mg/kg ip plus 2′-CH3-MPTP
Experimental: as §1, §2, §3

Which “fluorescence intensity (FI) in the optic disc over saline control, in words” value (transgenic GFAP-GFP mice [1]; 2′-CH3-MPTP alone, 4 x 15 mg/kg ip, P<0.05, FIG. 4) does the source give for `Cc1ccccc1C1=CCN(C)CC1` [2′-CH3-MPTP, methyl-4(2′-methylphenyl)-1,2,3,6-tetrahydropyridine, reference compound] here?
The value was “significant increase”.

And the “increase in GFP fluorescence of the optic disc” value (transgenic GFAP-GFP mice [1]; neurotoxicant alone, 4 x 15 mg/kg ip once every 2 h, versus saline control, FIG. 4)?
The value was 36%.

Which results are given for `[Br-].c1ccc(Cn2cc[n+](Cc3ccccc3)c2)cc1` [DBZIM, 1,3-bisbenzylimidazolium bromide]?
change in GFP fluorescence (fluorescence intensity) of the optic disc versus saline control (transgenic GFAP-GFP mice [1]; DBZIM 25 mg/kg ip 24 h before and after 4 x 15 mg/kg ip 2′-CH3-MPTP, quantified by algorithm, FIG. 4, day 4): no significant change; also recorded: prevented the 2′-CH3-MPTP-induced retinal toxicity; apparent retinal neurotoxicity in composite retinal images (transgenic GFAP-GFP mice [1]; DBZIM 25 mg/kg ip plus 2′-CH3-MPTP, FIG. 3): no apparent neurotoxicity; gliosis in retinal whole-mounts (GFP green and GFAP red fluorescence, nerve fiber layer) (transgenic GFAP-GFP mice [2]; FIG. 5): attenuated both green and red fluorescence to the basal levels; also recorded: significantly attenuates the gliosis; gliosis in retinal astrocytes and Müller cells (retinal cross-sections) (transgenic GFAP-GFP mice [2]; FIG. 6): reduced the neurotoxicant-induced gliosis to close to the basal level; also recorded: significantly attenuated; DA neuron depletion in the SNpc (TH immunoreactivity) (transgenic GFAP-GFP mice [3]; SNpc, FIG. 8): A significant portion of the DA neurons is protected; striatal gliosis (GFP signal) (transgenic GFAP-GFP mice [3]; striatum, FIG. 7): cut down the gliosis in the striatum to a basal level; also recorded: significantly attenuates the neurotoxicity
